Experimental data from PubChem BioAssay (NCI).
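Protocol summary: plate cells (96-well), add compound at 5 concentrations, incubate 48 h, interpolate endpoints linearly. GI50 marks 50% less growth. TGI is the concentration that stops growth completely.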

Experiments:
Experiment in all cases: growth of human tumour cells (NCI), 48 h
786-0 renal = system: 786-0 renal
SF-539 CNS = system: SF-539 CNS
TK-10 renal = system: TK-10 renal
UACC-62 melanoma = system: UACC-62 melanoma
HCT-116 colon = system: HCT-116 colon
MDA-MB-231 breast = system: MDA-MB-231 breast
HCT-15 colon = system: HCT-15 colon
LOX IMVI melanoma = system: LOX IMVI melanoma
IGROV1 ovarian = system: IGROV1 ovarian
SK-MEL-2 melanoma = system: SK-MEL-2 melanoma
SN12C renal = system: SN12C renal
UACC-257 melanoma = system: UACC-257 melanoma
CAKI-1 renal = system: CAKI-1 renal
OVCAR-4 ovarian = system: OVCAR-4 ovarian
RXF 393 renal = system: RXF 393 renal
HOP-92 NSCLC = system: HOP-92 NSCLC
SK-OV-3 ovarian = system: SK-OV-3 ovarian
NCI-H23 lung = system: NCI-H23 lung
PC-3 prostate = system: PC-3 prostate
SF-295 CNS = system: SF-295 CNS
MALME-3M melanoma = system: MALME-3M melanoma
SNB-19 CNS = system: SNB-19 CNS
DU-145 prostate = system: DU-145 prostate
K-562 leukemia = system: K-562 leukemia
HCC-2998 colon = system: HCC-2998 colon
SNB-75 CNS = system: SNB-75 CNS
MOLT-4 leukemia = system: MOLT-4 leukemia
OVCAR-3 ovarian = system: OVCAR-3 ovarian
M14 melanoma = system: M14 melanoma
MDA-N = system: MDA-N
SK-MEL-5 melanoma = system: SK-MEL-5 melanoma
SK-MEL-28 melanoma = system: SK-MEL-28 melanoma
HS 578T breast = system: HS 578T breast
MDA-MB-435 = system: MDA-MB-435
NCI/ADR-RES ovarian = system: NCI/ADR-RES ovarian
HT29 colon = system: HT29 colon
CCRF-CEM leukemia = system: CCRF-CEM leukemia
U251 CNS = system: U251 CNS
SF-268 CNS = system: SF-268 CNS
EKVX NSCLC = system: EKVX NSCLC
SR leukemia = system: SR leukemia
OVCAR-5 ovarian = system: OVCAR-5 ovarian
ACHN renal = system: ACHN renal
NCI-H460 lung = system: NCI-H460 lung
COLO 205 colon = system: COLO 205 colon
A549 NSCLC = system: A549 NSCLC
T-47D breast = system: T-47D breast
NCI-H226 lung = system: NCI-H226 lung
KM12 colon = system: KM12 colon
RPMI-8226 leukemia = system: RPMI-8226 leukemia
OVCAR-8 ovarian = system: OVCAR-8 ovarian
SW-620 colon = system: SW-620 colon
A498 renal = system: A498 renal
MCF7 breast = system: MCF7 breast
HL-60(TB) leukemia = system: HL-60(TB) leukemia

## CCOC(=O)c1cnc2oc3ccc(O)cc3c2c1C
786-0 renal
  TGI: > 100 µM
SF-539 CNS
  TGI: > 100 µM
TK-10 renal
  TGI: > 100 µM
UACC-62 melanoma
  TGI: > 100 µM
HCT-116 colon
  TGI: > 100 µM
MDA-MB-231 breast
  TGI: > 100 µM
HCT-15 colon
  TGI: > 100 µM
LOX IMVI melanoma
  TGI: > 100 µM
IGROV1 ovarian
  GI50: 86.2 µM
  TGI: > 100 µM
SK-MEL-2 melanoma
  TGI: > 100 µM
SN12C renal
  TGI: > 100 µM
UACC-257 melanoma
  TGI: > 100 µM
CAKI-1 renal
  TGI: > 100 µM
OVCAR-4 ovarian
  TGI: > 100 µM
RXF 393 renal
  TGI: > 100 µM
HOP-92 NSCLC
  TGI: > 100 µM
SK-OV-3 ovarian
  TGI: > 100 µM
NCI-H23 lung
  TGI: > 100 µM
PC-3 prostate
  TGI: > 100 µM
SF-295 CNS
  TGI: > 100 µM
MALME-3M melanoma
  TGI: > 100 µM
SNB-19 CNS
  TGI: > 100 µM
DU-145 prostate
  TGI: > 100 µM
K-562 leukemia
  TGI: > 100 µM
HCC-2998 colon
  TGI: > 100 µM
SNB-75 CNS
  GI50: 26 µM
  TGI: 82.9 µM
MOLT-4 leukemia
  TGI: > 100 µM
OVCAR-3 ovarian
  TGI: > 100 µM
M14 melanoma
  TGI: > 100 µM
MDA-N
  TGI: > 100 µM
SK-MEL-5 melanoma
  TGI: > 100 µM
SK-MEL-28 melanoma
  TGI: > 100 µM
HS 578T breast
  TGI: > 100 µM
MDA-MB-435
  TGI: > 100 µM
NCI/ADR-RES ovarian
  TGI: > 100 µM
HT29 colon
  TGI: > 100 µM
CCRF-CEM leukemia
  TGI: > 100 µM
U251 CNS
  TGI: > 100 µM
SF-268 CNS
  GI50: 69.9 µM
  TGI: > 100 µM
EKVX NSCLC
  TGI: > 100 µM
SR leukemia
  TGI: > 100 µM
OVCAR-5 ovarian
  TGI: > 100 µM
ACHN renal
  TGI: > 100 µM
NCI-H460 lung
  TGI: > 100 µM
COLO 205 colon
  TGI: > 100 µM
A549 NSCLC
  TGI: > 100 µM
T-47D breast
  TGI: > 100 µM
NCI-H226 lung
  TGI: > 100 µM
KM12 colon
  GI50: 70.3 µM
  TGI: > 100 µM
RPMI-8226 leukemia
  TGI: > 100 µM
OVCAR-8 ovarian
  TGI: > 100 µM
SW-620 colon
  TGI: > 100 µM
A498 renal
  TGI: > 100 µM
MCF7 breast
  TGI: > 100 µM
HL-60(TB) leukemia
  TGI: > 100 µM
